± gives the expanded uncertainty stated by the source.
Experiment: xn = mol fraction of the nth substance listed
Details: Constant-volume piezometry

**Q.** Which mass density (553.15 K, 10864 kPa, Fluid (supercritical or subcritical phases), x1 = 0.9) does the source give for `CCCCC` [pentane] + CCCO here?
**A.** 311.86 ± 1.6 kg/m3

**Q.** What about the mass density (553.15 K, 11147 kPa, Fluid (supercritical or subcritical phases), x1 = 0.2) of the same compound?
**A.** 390.67 ± 2 kg/m3

**Q.** And the mass density (553.15 K, 11334 kPa, Fluid (supercritical or subcritical phases), x1 = 0.8)?
**A.** 314.89 ± 1.6 kg/m3

**Q.** And the mass density (553.15 K, 12137 kPa, Fluid (supercritical or subcritical phases), x1 = 0.9)?
**A.** 333.53 ± 1.7 kg/m3

**Q.** What about the mass density (553.15 K, 12374 kPa, Fluid (supercritical or subcritical phases), x1 = 0.8) of the same compound?
**A.** 333.35 ± 1.7 kg/m3

**Q.** What about the mass density (553.15 K, 13032 kPa, Fluid (supercritical or subcritical phases), x1 = 0.2) of the same compound?
**A.** 418.04 ± 2.1 kg/m3

**Q.** What about the mass density (553.15 K, 13118 kPa, Fluid (supercritical or subcritical phases), x1 = 0.8) of the same compound?
**A.** 344.85 ± 1.7 kg/m3

**Q.** And the mass density (553.15 K, 13951 kPa, Fluid (supercritical or subcritical phases), x1 = 0.9)?
**A.** 353.59 ± 1.8 kg/m3

**Q.** And the mass density (553.15 K, 14669 kPa, Fluid (supercritical or subcritical phases), x1 = 0.8)?
**A.** 361.39 ± 1.8 kg/m3

**Q.** What about the mass density (553.15 K, 18451 kPa, Fluid (supercritical or subcritical phases), x1 = 0.2) of the same compound?
**A.** 469.6 ± 2.4 kg/m3

**Q.** What about the mass density (553.15 K, 20863 kPa, Fluid (supercritical or subcritical phases), x1 = 0.9) of the same compound?
**A.** 406.66 ± 2 kg/m3

**Q.** And the mass density (553.15 K, 21933 kPa, Fluid (supercritical or subcritical phases), x1 = 0.8)?
**A.** 417.56 ± 2.1 kg/m3

**Q.** What about the mass density (553.15 K, 25921 kPa, Fluid (supercritical or subcritical phases), x1 = 0.2) of the same compound?
**A.** 508.72 ± 2.6 kg/m3

**Q.** And the mass density (553.15 K, 34331 kPa, Fluid (supercritical or subcritical phases), x1 = 0.8)?
**A.** 465.95 ± 2.4 kg/m3

**Q.** What about the mass density (553.15 K, 37494 kPa, Fluid (supercritical or subcritical phases), x1 = 0.2) of the same compound?
**A.** 546.06 ± 2.8 kg/m3

**Q.** And the mass density (563.15 K, 1429 kPa, Gas, x1 = 0.8)?
**A.** 22.48 ± 0.07 kg/m3

**Q.** What about the mass density (563.15 K, 1719 kPa, Gas, x1 = 0.2) of the same compound?
**A.** 24.88 ± 0.08 kg/m3

**Q.** And the mass density (563.15 K, 2200 kPa, Gas, x1 = 0.8)?
**A.** 36.62 ± 0.11 kg/m3

**Q.** And the mass density (563.15 K, 3253 kPa, Gas, x1 = 0.8)?
**A.** 58.3 ± 0.18 kg/m3

**Q.** What about the mass density (563.15 K, 3644 kPa, Gas, x1 = 0.2) of the same compound?
**A.** 52.9 ± 0.16 kg/m3

**Q.** And the mass density (563.15 K, 3914 kPa, Fluid (supercritical or subcritical phases), x1 = 0.8)?
**A.** 73.65 ± 0.37 kg/m3

**Q.** And the mass density (563.15 K, 4188 kPa, Fluid (supercritical or subcritical phases), x1 = 0.9)?
**A.** 83.22 ± 0.42 kg/m3

**Q.** What about the mass density (563.15 K, 4893 kPa, Fluid (supercritical or subcritical phases), x1 = 0.2) of the same compound?
**A.** 91.24 ± 0.46 kg/m3

**Q.** What about the mass density (563.15 K, 5140 kPa, Fluid (supercritical or subcritical phases), x1 = 0.8) of the same compound?
**A.** 106.2 ± 0.54 kg/m3

**Q.** What about the mass density (563.15 K, 5522 kPa, Fluid (supercritical or subcritical phases), x1 = 0.9) of the same compound?
**A.** 123.11 ± 0.62 kg/m3

**Q.** And the mass density (563.15 K, 5594 kPa, Fluid (supercritical or subcritical phases), x1 = 0.2)?
**A.** 114.13 ± 0.58 kg/m3

**Q.** What about the mass density (563.15 K, 5876 kPa, Fluid (supercritical or subcritical phases), x1 = 0.9) of the same compound?
**A.** 133.86 ± 0.68 kg/m3

**Q.** And the mass density (563.15 K, 6362 kPa, Fluid (supercritical or subcritical phases), x1 = 0.8)?
**A.** 140.03 ± 0.71 kg/m3

**Q.** And the mass density (563.15 K, 6504 kPa, Fluid (supercritical or subcritical phases), x1 = 0.2)?
**A.** 150.05 ± 0.77 kg/m3

**Q.** And the mass density (563.15 K, 6690 kPa, Fluid (supercritical or subcritical phases), x1 = 0.9)?
**A.** 163.64 ± 0.83 kg/m3

**Q.** And the mass density (563.15 K, 6728 kPa, Fluid (supercritical or subcritical phases), x1 = 0.8)?
**A.** 155.74 ± 0.79 kg/m3

**Q.** And the mass density (563.15 K, 6993 kPa, Fluid (supercritical or subcritical phases), x1 = 0.2)?
**A.** 175.27 ± 0.9 kg/m3

**Q.** And the mass density (563.15 K, 7120 kPa, Fluid (supercritical or subcritical phases), x1 = 0.8)?
**A.** 169.45 ± 0.86 kg/m3

**Q.** What about the mass density (563.15 K, 7244 kPa, Fluid (supercritical or subcritical phases), x1 = 0.2) of the same compound?
**A.** 189.26 ± 0.98 kg/m3

**Q.** What about the mass density (563.15 K, 7275 kPa, Fluid (supercritical or subcritical phases), x1 = 0.8) of the same compound?
**A.** 175.68 ± 0.9 kg/m3

**Q.** And the mass density (563.15 K, 7389 kPa, Fluid (supercritical or subcritical phases), x1 = 0.8)?
**A.** 180.47 ± 0.92 kg/m3

**Q.** What about the mass density (563.15 K, 7397 kPa, Fluid (supercritical or subcritical phases), x1 = 0.9) of the same compound?
**A.** 189.08 ± 0.96 kg/m3

**Q.** What about the mass density (563.15 K, 7718 kPa, Fluid (supercritical or subcritical phases), x1 = 0.2) of the same compound?
**A.** 219.66 ± 1.1 kg/m3

**Q.** And the mass density (563.15 K, 7728 kPa, Fluid (supercritical or subcritical phases), x1 = 0.8)?
**A.** 192.78 ± 0.98 kg/m3

**Q.** And the mass density (563.15 K, 7738 kPa, Fluid (supercritical or subcritical phases), x1 = 0.9)?
**A.** 201.98 ± 1 kg/m3

**Q.** And the mass density (563.15 K, 8148 kPa, Fluid (supercritical or subcritical phases), x1 = 0.2)?
**A.** 244.99 ± 1.3 kg/m3

**Q.** What about the mass density (563.15 K, 8285 kPa, Fluid (supercritical or subcritical phases), x1 = 0.9) of the same compound?
**A.** 220.25 ± 1.1 kg/m3

**Q.** And the mass density (563.15 K, 8310 kPa, Fluid (supercritical or subcritical phases), x1 = 0.8)?
**A.** 213.43 ± 1.1 kg/m3

**Q.** And the mass density (563.15 K, 8376 kPa, Fluid (supercritical or subcritical phases), x1 = 0.2)?
**A.** 258.68 ± 1.3 kg/m3

**Q.** And the mass density (563.15 K, 8439 kPa, Fluid (supercritical or subcritical phases), x1 = 0.2)?
**A.** 262.38 ± 1.3 kg/m3

**Q.** What about the mass density (563.15 K, 8483 kPa, Fluid (supercritical or subcritical phases), x1 = 0.8) of the same compound?
**A.** 219.19 ± 1.1 kg/m3

**Q.** And the mass density (563.15 K, 8609 kPa, Fluid (supercritical or subcritical phases), x1 = 0.2)?
**A.** 271.82 ± 1.4 kg/m3

**Q.** And the mass density (563.15 K, 8640 kPa, Fluid (supercritical or subcritical phases), x1 = 0.9)?
**A.** 232.6 ± 1.2 kg/m3

**Q.** And the mass density (563.15 K, 8748 kPa, Fluid (supercritical or subcritical phases), x1 = 0.9)?
**A.** 236.06 ± 1.2 kg/m3

**Q.** What about the mass density (563.15 K, 8876 kPa, Fluid (supercritical or subcritical phases), x1 = 0.9) of the same compound?
**A.** 240.45 ± 1.2 kg/m3

**Q.** And the mass density (563.15 K, 8904 kPa, Fluid (supercritical or subcritical phases), x1 = 0.8)?
**A.** 234.24 ± 1.2 kg/m3

**Q.** And the mass density (563.15 K, 8945 kPa, Fluid (supercritical or subcritical phases), x1 = 0.2)?
**A.** 289.96 ± 1.5 kg/m3

**Q.** And the mass density (563.15 K, 8965 kPa, Fluid (supercritical or subcritical phases), x1 = 0.9)?
**A.** 243.76 ± 1.2 kg/m3

**Q.** What about the mass density (563.15 K, 9207 kPa, Fluid (supercritical or subcritical phases), x1 = 0.8) of the same compound?
**A.** 244.86 ± 1.2 kg/m3

**Q.** What about the mass density (563.15 K, 9294 kPa, Fluid (supercritical or subcritical phases), x1 = 0.2) of the same compound?
**A.** 306.21 ± 1.6 kg/m3

**Q.** And the mass density (563.15 K, 9393 kPa, Fluid (supercritical or subcritical phases), x1 = 0.2)?
**A.** 310.43 ± 1.6 kg/m3

**Q.** What about the mass density (563.15 K, 9613 kPa, Fluid (supercritical or subcritical phases), x1 = 0.2) of the same compound?
**A.** 318.13 ± 1.6 kg/m3

**Q.** And the mass density (563.15 K, 9648 kPa, Fluid (supercritical or subcritical phases), x1 = 0.8)?
**A.** 258.06 ± 1.3 kg/m3

**Q.** And the mass density (563.15 K, 10165 kPa, Fluid (supercritical or subcritical phases), x1 = 0.8)?
**A.** 271.99 ± 1.4 kg/m3

**Q.** What about the mass density (563.15 K, 10334 kPa, Fluid (supercritical or subcritical phases), x1 = 0.2) of the same compound?
**A.** 340.56 ± 1.7 kg/m3

**Q.** What about the mass density (563.15 K, 10363 kPa, Fluid (supercritical or subcritical phases), x1 = 0.9) of the same compound?
**A.** 281.45 ± 1.4 kg/m3

**Q.** What about the mass density (563.15 K, 10433 kPa, Fluid (supercritical or subcritical phases), x1 = 0.2) of the same compound?
**A.** 343.35 ± 1.7 kg/m3

**Q.** And the mass density (563.15 K, 10875 kPa, Fluid (supercritical or subcritical phases), x1 = 0.8)?
**A.** 287.81 ± 1.4 kg/m3

**Q.** And the mass density (563.15 K, 11127 kPa, Fluid (supercritical or subcritical phases), x1 = 0.9)?
**A.** 301.08 ± 1.5 kg/m3

**Q.** And the mass density (563.15 K, 11345 kPa, Fluid (supercritical or subcritical phases), x1 = 0.8)?
**A.** 298.6 ± 1.5 kg/m3

**Q.** And the mass density (563.15 K, 11776 kPa, Fluid (supercritical or subcritical phases), x1 = 0.9)?
**A.** 311.7 ± 1.6 kg/m3

**Q.** What about the mass density (563.15 K, 11942 kPa, Fluid (supercritical or subcritical phases), x1 = 0.2) of the same compound?
**A.** 377.85 ± 1.9 kg/m3

**Q.** And the mass density (563.15 K, 12196 kPa, Fluid (supercritical or subcritical phases), x1 = 0.2)?
**A.** 382.64 ± 1.9 kg/m3

**Q.** And the mass density (563.15 K, 12285 kPa, Fluid (supercritical or subcritical phases), x1 = 0.8)?
**A.** 314.73 ± 1.6 kg/m3

**Q.** What about the mass density (563.15 K, 12687 kPa, Fluid (supercritical or subcritical phases), x1 = 0.2) of the same compound?
**A.** 390.46 ± 2 kg/m3

**Q.** What about the mass density (563.15 K, 13176 kPa, Fluid (supercritical or subcritical phases), x1 = 0.9) of the same compound?
**A.** 333.36 ± 1.7 kg/m3

**Q.** What about the mass density (563.15 K, 13452 kPa, Fluid (supercritical or subcritical phases), x1 = 0.8) of the same compound?
**A.** 333.18 ± 1.7 kg/m3

**Q.** And the mass density (563.15 K, 14255 kPa, Fluid (supercritical or subcritical phases), x1 = 0.8)?
**A.** 344.68 ± 1.7 kg/m3

**Q.** What about the mass density (563.15 K, 14845 kPa, Fluid (supercritical or subcritical phases), x1 = 0.2) of the same compound?
**A.** 417.82 ± 2.1 kg/m3
